Here are results for one compound from patent US12716055B2, “Treatment of disc degenerative disease and stimulation of proteoglycan synthesis by fibroblast conditioned media and formulations thereof” (FIBROBIOLOGICS, INC., priority 2019, dated 2026).

In this test the test system is Neonatal foreskin fibroblasts. The test is described as follows: EGF production in foreskin fibroblasts cultured with naltrexone and TLR agonists (ELISA). It counts as cell-based. To be noted: treatment of fibroblasts with opioid receptor antagonist, 12 hours of culture, 50% confluent. The text has this: The present example characterizes the use of naltrexone and a TLR agonist to stimulate EGF production in foreskin fibroblasts as an example of a type of fibroblasts.
Neonatal foreskin fibroblasts were obtained from ATCC and cultured in typical DMEM culture media containing 10% fetal calf serum and antibiotics. After 3 days of culture, fibroblasts where plated in 12 well plates and cultured at 50% confluent conditions. Addition of naltrexone (Sigma Aldrich®) and the indicated TLR agonists was performed for 12 hours of culture. Pam3CSK4 was added at a total concentration of 1 ug/ml. LPS was added at 0.5 ug/ml. CpG was added at 0.2 ug/ml. Concentration of EGF was assessed using ELISA (R&D Systems).

Molecules are shown by their SMILES.

Consider `O=C1CC[C@@]2(O)[C@H]3Cc4ccc(O)c5c4[C@@]2(CCN3CC2CC2)[C@H]1O5` [naltrexone], for which the “production of growth factors including EGF by fibroblasts” value is given as “induce production of various growth factors including EGF”.
